Experimental data from patent US20230295234A1, “ANTIMICROBIAL PEPTIDOMIMETICS” (SPEXIS AG, priority 2020, published 2023).
Bridge positions count the residues as written; N and C are the ends. Square brackets hold non-standard residues; d marks the D form. Triazole bridges read from a SMILES are 1,4-linked. Peptide text beside a SMILES is read from it. * marks the point of attachment. Val(Nα-amidino) = CC(C)[C@H](NC(=N)N)C(=O)*; Pro(4R-NH2) = N[C@H]1CN[C@H](C(=O)O)C1; Aha = [N-]=[N+]=NCC[C@H](N)C(=O)O; Hyp = O=C(O)[C@@H]1C[C@@H](O)CN1; aThr = C[C@H](O)[C@H](N)C(=O)O; Pen = CC(C)(S)[C@H](N)C(=O)O; dDab = NCC[C@@H](N)C(=O)O; Pra = C#CC[C@H](N)C(=O)O; Dab = NCC[C@H](N)C(=O)O

Legend:
[1] = test system: Klebsiella pneumoniae SSI3010; settings: SSI3010
Method in brief: (§1)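 Two-fold serial dilutions of peptide, in water with polysorbate 80 (0.002% final), met bacteria adjusted to 0.5 McFarland then diluted to about 5×10^5 CFU/mL. Medium was cation-adjusted Mueller-Hinton II broth; peptide stocks were 1 mg/mL in sterile water.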

[2] = test system: Escherichia coli MCR-1 Af 45; settings: Mueller-Hinton broth II, 18-20 hours at 35° C.
Method in brief: as §1

[3] = test system: Escherichia coli ATCC 25922; settings: ATCC 25922
Method in brief: as §1

[4] = test system: human red blood cells (hRBC); test: Hemolysis of human red blood cells; format: cell-based; settings: red cells of human, 1 h
Method in brief: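 PBS-washed human red blood cells (20% v/v) were incubated with peptide at 200 μg/mL for 1 h at 37 °C with shaking. Supernatant OD was read at 540 nm after 8-fold dilution. Hemolysis is expressed as percent of the water control.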

Row | SMILES | Klebsiella pneumoniae SSI3010 MIC [1] [mg/L] | Escherichia coli MCR-1 Af 45 MIC [2] [mg/L] | Escherichia coli ATCC 25922 MIC [3] [mg/L] | Hemolysis at 0.2 g/L [4] [%]
1 | CC[C@H](C)[C@H](NC(=O)[C@@H]1C[C@@H](O)CN1C(=O)[C@@H](NC(=N)N)C(C)C)C(=O)N[C@H](C(=O)N[C@@H](Cc1ccc(O)cc1)C(=O)N[C@@H]1C(=O)N[C@@H](CC(N)=O)C(=O)N[C@@H](CCCNC(=N)N)C(=O)N[C@@H](CCN)C(=O)N[C@@H](CO)C(=O)N[C@H](CCN)C(=O)N[C@@H](CCCCN)C(=O)N[C@H](C(=O)N[C@@H](CCN)C(=O)N[C@@H](CCCNC(=N)N)C(=O)N[C@@H](Cc2ccc(O)cc2)C(=O)O)CSSC1(C)C)[C@@H](C)O [Example 196] (HELM PEPTIDE1{[CC(C)[C@H](NC(=N)N)C(=O)[*:2]].[Hyp].I.T.Y.[Pen].N.R.[Dab].S.[NCC[C@@H](N[*:1])C(=O)[*:2]].K.C.[Dab].R.Y}$PEPTIDE1,PEPTIDE1,6:R3-13:R3$$$V2.0) | 0.125 | 0.0625 | 0.125 | 0
2 | CC[C@H](C)[C@H](NC(=O)[C@@H]1C[C@@H](O)CN1C(=O)[C@@H](NC(=N)N)C(C)C)C(=O)N[C@H](C(=O)N[C@@H](Cc1ccc(O)cc1)C(=O)N[C@@H]1C(=O)N[C@@H](CC(N)=O)C(=O)N[C@@H](CCCNC(=N)N)C(=O)N[C@@H](CCN)C(=O)N[C@@H](CO)C(=O)N[C@H](CCN)C(=O)N[C@@H](CCCCN)C(=O)N[C@H](C(=O)N[C@@H](CCN)C(=O)N[C@@H](CCN)C(=O)N[C@@H](Cc2ccc(O)cc2)C(=O)O)CSSC1(C)C)[C@@H](C)O [Example 197] (HELM PEPTIDE1{[CC(C)[C@H](NC(=N)N)C(=O)[*:2]].[Hyp].I.T.Y.[Pen].N.R.[Dab].S.[NCC[C@@H](N[*:1])C(=O)[*:2]].K.C.[Dab].[Dab].Y}$PEPTIDE1,PEPTIDE1,6:R3-13:R3$$$V2.0) | 0.125 | 0.0625 | 0.0625 | 0
3 | CC[C@H](C)[C@H](NC(=O)[C@@H]1C[C@@H](O)CN1C(=O)[C@@H](NC(=N)N)C(C)C)C(=O)N[C@H](C(=O)N[C@@H](Cc1ccc(O)cc1)C(=O)N[C@@H]1C(=O)N[C@@H](CC(N)=O)C(=O)N[C@@H](CCCNC(=N)N)C(=O)N[C@@H](CCN)C(=O)N[C@@H](CO)C(=O)N[C@H](CCN)C(=O)N[C@@H](CCCCN)C(=O)N[C@H](C(=O)N[C@@H](CCN)C(=O)N[C@@H](CCCN)C(=O)N[C@@H](Cc2ccc(O)cc2)C(=O)O)CSSC1(C)C)[C@@H](C)O [Example 198] (HELM PEPTIDE1{[CC(C)[C@H](NC(=N)N)C(=O)[*:2]].[Hyp].I.T.Y.[Pen].N.R.[Dab].S.[NCC[C@@H](N[*:1])C(=O)[*:2]].K.C.[Dab].[Orn].Y}$PEPTIDE1,PEPTIDE1,6:R3-13:R3$$$V2.0) | 0.125 | 0.0625 | 0.125 | 0
4 | CC[C@H](C)[C@H](NC(=O)[C@@H]1C[C@@H](N)CN1C(=O)[C@@H](NC(=N)N)C(C)C)C(=O)N[C@H](C(=O)N[C@@H](Cc1ccc(O)cc1)C(=O)N[C@@H]1C(=O)N[C@@H](CC(N)=O)C(=O)N[C@@H](CCCNC(=N)N)C(=O)N[C@@H](CCN)C(=O)N[C@@H]([C@@H](C)O)C(=O)N[C@H](CCN)C(=O)N[C@@H](CCCCN)C(=O)N[C@H](C(=O)N[C@@H](Cc2ccc(O)cc2)C(=O)N[C@@H](CCCNC(=N)N)C(=O)N[C@@H](Cc2ccc(O)cc2)C(=O)O)CSSC1(C)C)[C@@H](C)O [Example 199] ({Val(Nα-amidino)}-[Pro(4R-NH2)]ITY[Pen]NR[Dab]T[dDab]KCYRY-OH; disulfide 5-12) | 0.25 | 0.125 | 0.25 | 0
5 | CC[C@H](C)[C@H](NC(=O)[C@@H](NC(=O)[C@@H]1C[C@@H](N)CN1C(=O)[C@@H](NC(=N)N)C(C)C)[C@@H](C)CC)C(=O)N[C@@H](Cc1ccc(O)cc1)C(=O)N[C@@H]1C(=O)N[C@@H](CC(N)=O)C(=O)N[C@@H](CCCNC(=N)N)C(=O)N[C@@H](CCN)C(=O)N[C@@H]([C@@H](C)O)C(=O)N[C@H](CCN)C(=O)N[C@@H](CCCCN)C(=O)N[C@H](C(=O)N[C@@H](Cc2ccc(O)cc2)C(=O)N[C@@H](CCCNC(=N)N)C(=O)N[C@@H](Cc2ccc(O)cc2)C(=O)O)CSSC1(C)C [Example 200] ({Val(Nα-amidino)}-[Pro(4R-NH2)]IIY[Pen]NR[Dab]T[dDab]KCYRY-OH; disulfide 5-12) | 0.125 | 0.125 | 0.5 | 0
6 | CC[C@H](C)[C@H](NC(=O)[C@@H]1C[C@@H](O)CN1C(=O)[C@@H](NC(=N)N)C(C)C)C(=O)N[C@H](C(=O)N[C@@H](Cc1ccc(O)cc1)C(=O)N[C@@H]1C(=O)N[C@@H](CC(N)=O)C(=O)N[C@@H](CCCNC(=N)N)C(=O)N[C@@H](CCN)C(=O)N[C@@H]([C@@H](C)O)C(=O)N[C@H](CCN)C(=O)N[C@@H](CCCCN)C(=O)N[C@H](C(=O)N[C@@H](Cc2ccc(O)cc2)C(=O)N[C@@H](CCCNC(=N)N)C(=O)N[C@@H](Cc2ccc(O)cc2)C(=O)O)CSSC1(C)C)[C@H](C)O [Example 201] ({Val(Nα-amidino)}-[Hyp]I[aThr]Y[Pen]NR[Dab]T[dDab]KCYRY-OH; disulfide 5-12) | 0.5 | 0.25 | 0.5 | 0
7 | CC[C@H](C)[C@H](NC(=O)[C@@H](NC(=O)[C@@H]1CCCN1C(=O)[C@@H](N=C(N(C)C)N(C)C)C(C)C)[C@@H](C)CC)C(=O)N[C@@H](Cc1ccc(O)cc1)C(=O)N[C@H]1CSSC[C@@H](C(=O)N[C@@H](CCN)C(=O)N[C@@H](CCCNC(=N)N)C(=O)N[C@@H](Cc2ccc(O)cc2)C(=O)O)NC(=O)[C@H](CCCCN)NC(=O)[C@@H](CCN)NC(=O)[C@H]([C@@H](C)O)NC(=O)[C@H](CCN)NC(=O)[C@H](CCCNC(=N)N)NC(=O)[C@H](CC(N)=O)NC1=O [Example 202] (HELM PEPTIDE1{[CC(C)[C@H](N=C(N(C)C)N(C)C)C(=O)[*:2]].P.I.I.Y.C.N.R.[Dab].T.[NCC[C@@H](N[*:1])C(=O)[*:2]].K.C.[Dab].R.Y}$PEPTIDE1,PEPTIDE1,6:R3-13:R3$$$V2.0) | 0.25 | 0.0625 | 0.0625 | 0
8 | CC[C@H](C)[C@H](NC(=O)[C@@H]1C[C@@H](O)CN1C(=O)[C@@H](N=C(N(C)C)N(C)C)C(C)C)C(=O)N[C@H](C(=O)N[C@@H](Cc1ccc(O)cc1)C(=O)N[C@@H]1C(=O)N[C@@H](CC(N)=O)C(=O)N[C@@H](CCCNC(=N)N)C(=O)N[C@@H](CCN)C(=O)N[C@@H]([C@@H](C)O)C(=O)N[C@H](CCN)C(=O)N[C@@H](CCCCN)C(=O)N[C@H](C(=O)N[C@@H](CCN)C(=O)N[C@@H](CCCNC(=N)N)C(=O)N[C@@H](Cc2ccc(O)cc2)C(=O)O)CSSC1(C)C)[C@@H](C)O [Example 203] (HELM PEPTIDE1{[CC(C)[C@H](N=C(N(C)C)N(C)C)C(=O)[*:2]].[Hyp].I.T.Y.[Pen].N.R.[Dab].T.[NCC[C@@H](N[*:1])C(=O)[*:2]].K.C.[Dab].R.Y}$PEPTIDE1,PEPTIDE1,6:R3-13:R3$$$V2.0) | 0.5 | 0.125 | 0.25 | 0
9 | CC[C@H](C)[C@H](NC(=O)[C@@H](NC(=O)[C@@H]1C[C@@H](O)CN1C(=O)[C@@H](N)C(C)C)[C@@H](C)CC)C(=O)N[C@@H](Cc1ccc(O)cc1)C(=O)N[C@H]1Cc2cn(nn2)CC[C@@H](C(=O)N[C@@H](CCN)C(=O)N[C@@H](CCCNC(=N)N)C(=O)N[C@@H](Cc2ccc(O)cc2)C(=O)O)NC(=O)[C@H](CCCCN)NC(=O)[C@@H](CCN)NC(=O)[C@H]([C@@H](C)O)NC(=O)[C@H](CCN)NC(=O)[C@H](CCCNC(=N)N)NC(=O)[C@H](CC(N)=O)NC1=O [Example 204] (H-V[Hyp]IIY[Pra]NR[Dab]T[dDab]K[Aha][Dab]RY-OH; triazole 6-13) | 2 | 0.25 | 0.25 | 0
10 | CC[C@H](C)[C@H](NC(=O)[C@@H](NC(=O)[C@@H]1C[C@@H](O)CN1C(=O)[C@@H](N)C(C)C)[C@@H](C)CC)C(=O)N[C@@H](Cc1ccc(O)cc1)C(=O)N[C@H]1CC(=O)NCC[C@@H](C(=O)N[C@@H](CCN)C(=O)N[C@@H](CCCNC(=N)N)C(=O)N[C@@H](Cc2ccc(O)cc2)C(=O)O)NC(=O)[C@H](CCCCN)NC(=O)[C@@H](CCN)NC(=O)[C@H]([C@@H](C)O)NC(=O)[C@H](CCN)NC(=O)[C@H](CCCNC(=N)N)NC(=O)[C@H](CC(N)=O)NC1=O [Example 205] (HELM PEPTIDE1{V.[Hyp].I.I.Y.D.N.R.[Dab].T.[NCC[C@@H](N[*:1])C(=O)[*:2]].K.[Dab].[Dab].R.Y}$PEPTIDE1,PEPTIDE1,6:R3-13:R3$$$V2.0) | 0.25 | 0.125 | 0.125 | 0
